Test results published in BindingDB's records for doi:10.1016/s0960-894x(99)00089-x (Kyoto Pharmaceutical University, 1999).

Test: Inhibitory activity against HIV-1 IIIB in CEM-SS infected cells (Experiment 1)

For `Cc1cn([C@H]2C[C@H](N=[N+]=[N-])[C@@H](CO)O2)c(=O)[nH]c1=O` [1-((2R,4S,5S)-4-Azido-5-hydroxymethyl-tetrahydro-furan-2-yl)-5-methyl-1H-pyrimidine-2,4-dione], the EC50 was 126 nM.
